Source: patent US20100266692A1, “NANOPARTICLES COMPRISING A NON-IONIZABLE POLYMER AND AN ANIONIC CELLULOSIC POLYMER” (priority 2007, published 2010)
≈ marks a conversion by molar mass, not a printed value.

Key:
[1] = Solubility of drug in water; format: physicochemical
Log P of drug = format: physicochemical; details: octanol/water
Description: The first property of hydrophobic drugs is that they are extremely hydrophobic. Log P, defined as the base 10 logarithm of the ratio of the drug solubility in octanol to the drug solubility in water, is a widely accepted measure of hydrophobicity. By “extremely hydrophobic” is meant that the Log P value of the drug is at least 4.0, preferably at least 4.5, and most preferably at least 5.0. Log P may be measured experimentally or calculated using methods known in the art. When using a calculated value for Log P, the highest value calculated using any generally accepted method for calculating Log P is used. Calculated Log P values are often referred to by the calculation method, such as Clog P, Alog P, and Mlog P. The Log P may also be estimated using fragmentation methods, such as Crippen's fragmentation method (27 J. Chem. Inf. Comput. Sci. 21 (1987)); Viswanadhan's fragmentation method (29 J. Chem. Inf. Comput. Sci. 163 (1989)); or Broto's fragmentation method (19 Eur. J. Med. Chem.-Chim. Theor. 71 (1984). Preferably the Log P value is calculated by using the average value estimated using Crippen's, Viswanadhan's, and Broto's fragmentation methods.

[2] = Solubility in model fasted duodenal (MFD) solution; format: physicochemical; details: fassgf or other biorelevant, PBS containing 7.3 mM sodium taurocholic acid and 1.4 mM 1-palmitoyl-2-oleyl-sn-glycero-3-phosphocholine
[3] = Protocol: The polymer is a poorly aqueous soluble non-ionizable polymer. […] An appropriate PBS solution is an aqueous solution consisting of 20 mM sodium phosphate (Na2HPO4), 47 mM potassium phosphate (KH2PO4), 87 mM NaCl, and 0.2 mM KCl, adjusted to pH 6.5 with NaOH. A test to determine whether the polymer is poorly aqueous soluble may be performed as follows. The polymer is initially present in bulk powder form with average particle sizes of greater than about 1 micron. The polymer alone is administered at a concentration of 0.2 mg/mL to the PBS solution and stirred for approximately 1 hour at room temperature. Next, a nylon 0.45 μm filter is weighed, and the polymer solution is filtered. The filter is dried overnight at 40° C., and weighed the following morning. The amount of polymer dissolved is calculated from the amount of polymer added to the PBS solution minus the amount of polymer remaining on the filter (mg). […] First, 0.2 mg/mL of the polymer was added to a PBS solution consisting of 20 mM Na2HPO4, 47 mM KH2PO4, 87 mM NaCl, and 0.2 mM KCl, adjusted to pH 6.5 with NaOH. The polymer was stirred in the PBS solution for approximately 1 hour at room temperature. […] The amount of soluble polymer was calculated from the amount of polymer added to form the polymer solution minus the amount of polymer remaining on the filter.

Compound | solubility [1] | logP (Log P of drug) | solubility [2] | Amount Soluble at pH 6.5 [3]
CC[C@@H]1C[C@H](N(Cc2cc(C(F)(F)F)cc(C(F)(F)F)c2)C(C)=O)c2cc(C(F)(F)F)ccc2N1C(=O)OC(C)C [Drug 2, [2R,4S]-4-[acetyl-(3,5-bis-trifluoromethyl-benzyl)-amino]-2-ethyl-6-trifluoromethyl-3,4-dihydro-2H-quinoline-1-carboxylic acid isopropyl ester] | < 1 µg/mL | 6.7 |  | 
Cc1ccc(-c2cc(C(F)(F)F)nn2-c2ccc(S(N)(=O)=O)cc2)cc1 [Drug 3, 4-[5-(4-methylphenyl)-3-(trifluoromethyl)-1H-pyrazol-1-yl]benzenesulfonamide] |  |  | ~40 µg/mL (≈ 105 µM) | 
cellulose acetate |  |  |  | 0.03 mg/mL

More lines, now with the values ahead:

solubility [1] | logP (Log P of drug) | solubility [2] | Amount Soluble at pH 6.5 [3] | Compound
~10 µg/mL (≈ 31.8 µM) | ~3 |  |  | Cc1onc(-c2ccccc2)c1-c1ccc(S(N)(=O)=O)cc1 [Drug 1, 4-(5-methyl-3-phenyl-4-isoxazolyl) benzenesulfonamide, reference compound]
 |  |  | <0.001 mg/mL | ethylcellulose
